Experimental data taken from patent publication US20080167532A1, “ASSESSING CANCER TREATMENT RESPONSIVENESS” (Mayo Foundation for Medical Education and Research, priority 2006, published 2008).
Entries after “also recorded” stand apart in the source; their conditions may differ. Read-outs that look alike come from different tables or passages of the source. Each block holds one compound with its values, some of them ahead of it.

Columns and labels:
[1] = tested on: DRO cells; experiment: Western blot of RhoB, RhoA, p21, cyclin E polypeptides in DRO cells; type: cell-based, human
Experimental: RhoB and p21^WAF1/CIP1 polypeptide expression also was examined in ATC cells to determine the time course of induction of each polypeptide following stimulation with a PPARγ agonist (FIG. 6). […]. Polypeptide lysates were prepared and examined for RhoB, RhoA and β-actin expression. […]; FIG. 6A).
The time course for induction of RhoB and p21^WAF1/CIP1 was determined using Western blotting.
(§1) DRO90-1 (DRO) and ARO81 (ARO) cells were derived from primary cultures of human anaplastic thyroid carcinoma tumors that were obtained from Dr. G. J. Juillard (University of California-Los Angeles, Los Angeles, Calif.), and KTC-2 and KTC3 cells were obtained from Dr. Junichi Kurebayashi (Podtcheko et al., J. Clin. Endocrinol. Metab., 88:1889-1896 (2003) and Pushkarev et al., Molecular mechanisms of the Effects of Low Concentrations of Taxol in Anaplastic Thyroid Cancer Cells. Endocrinology: en. 2004-0127 (2004)). Cells were cultured in RPMI 1640 medium (Cellgro, Herndon Va.) supplemented with 10% charcoal-stripped fetal bovine serum (Hyclone), non-essential amino acids, sodium pyruvate, and penicillin-streptomycin-amphotericin B at 37° C. in a humidified atmosphere with 5% CO^2. Charcoal-stripped serum was used to exclude endogenous PPAR ligands contained in serum. For proliferation studies, cells were plated in triplicate in 12-well culture plates at initial concentrations of 2×10^4 cells/well. After overnight incubation, cells were treated with 10 nM RS5444 or DMSO diluent (Sigma) for 6 days with medium, and drug changed every 48 hours. After 6 days, cells were washed with PBS (Cellgro), trypsinized, and counted by Beckman Coulter Counter (Beckman Instruments, Fullerton Calif.). For morphology studies, cells were plated in 12 well plates at initial concentrations of 2.5×10^4 cells/well. Cells were treated with either DMSO or 10 nM RS5444 (24 hours). After treatment, phase images were obtained on an inverted microscope. For real time PCR studies, cells were plated in 60 mm plates at 50% confluence and treated with 10 nM RS5444 for indicated incubation periods. […].
Cells were collected and lysed in RIPA buffer containing 50 mM Tris, 5 mM EDTA, 150 mM NaCl, 0.1% SDS, 0.5% Deoxycholate, 1% NP40, and protease inhibitor cocktail (Roche) followed by centrifugation. Excised tumor tissues were lysed in 50 mM Tris pH 8.0+1% SDS. Collected supernatants were, analyzed for protein concentration using Pierce's BCA assay, with 25 μg protein loaded per gel lane (Invitrogen) with later transfer to Immobilon-P membranes. The membranes were hybridized with antibodies (Santa Cruz, Cell Signaling, Sigma-Aldrich, St. Louis Mo.) as indicated overnight at 4° C. followed by treatment with species-specific horseradish peroxidase IgG (Jackson labs) for 45 minutes at room temperature. Detection was performed using Supersignal West Pico chemoluminescence kit (Pierce). Quantification of bands was performed in triplicate using Image Quant 5.2 (Molecular Dynamics, Sunnyvale Calif.).

[2] = tested on: DRO cells; experiment: DRO cell proliferation (cell counts over six days); type: cell-based, human; conditions: for IC50: Homo sapiens
Experimental: . Cells were treated every 48 hours over six days. Cell numbers were counted and data were plotted as mean values ±S.D. The thiazolidinediones inhibited cell proliferation of DRO cells in a dose responsive fashion (FIG. 3B). […]. The EC50 concentrations were in close agreement with the IC50 concentrations for each compound (FIG. 3B).
. […] Cell numbers were counted and data were plotted as mean values ±S.D. (FIG. 9D).
as §1, with “[…].” for “For morphology studies, cells were plated in 12 well plates at initial concentrations of 2.5×10^4 cells/well.”
Cells were either plated in triplicate at 7.5×10^4 cells/mL in 6-well plates or 2×10^4 cells/well in 12-well plates, allowed to adhere overnight, and then transfected for 24 to 72 hours with 2 to 5 μg of either scrambled, p21^WAF1/CIP1 (1022539), RhoB (SI00058933) or PPAR-γ-specific siRNA duplexes (Qiagen Valencia, Calif.) using RNAiFect reagent (Qiagen). The DNA target sequence for PPAR-γ was 5′-[…]-3′. After transfection, cells in the 6-well plates were treated with either DMSO diluent or 10 nM RS5444 for 24 hours and then analyzed by either real time PCR or immunoblotting. Cells in the 12-well plates were exposed for 6 days with medium, and drug changed every 48 hours. After 6 days, cells were washed with PBS (Cellgro), trypsinized, and counted by Beckman Coulter Counter.

[3] = molecular target: T1, PPARγ (Homo sapiens, UniProt P37231); experiment: PPRE3-tk-luc reporter (dual luciferase) assay in DRO cells; type: cell-based; set-up: endogenous in cells; host or cells: DRO90-1 (DRO) human anaplastic thyroid carcinoma cells
T1 sequence (P37231 1-505): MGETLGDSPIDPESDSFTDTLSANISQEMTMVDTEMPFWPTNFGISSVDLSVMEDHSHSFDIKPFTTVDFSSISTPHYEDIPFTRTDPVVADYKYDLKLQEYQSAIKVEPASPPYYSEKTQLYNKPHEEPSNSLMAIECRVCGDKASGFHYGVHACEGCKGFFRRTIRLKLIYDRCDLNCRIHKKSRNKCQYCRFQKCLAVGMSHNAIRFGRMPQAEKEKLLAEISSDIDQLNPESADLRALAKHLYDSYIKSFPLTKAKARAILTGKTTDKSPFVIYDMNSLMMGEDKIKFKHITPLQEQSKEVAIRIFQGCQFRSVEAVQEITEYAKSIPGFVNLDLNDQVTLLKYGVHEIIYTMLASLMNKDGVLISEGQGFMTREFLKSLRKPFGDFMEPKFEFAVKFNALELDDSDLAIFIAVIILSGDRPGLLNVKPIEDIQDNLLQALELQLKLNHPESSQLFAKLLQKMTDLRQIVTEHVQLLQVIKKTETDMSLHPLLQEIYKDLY
Experimental: The effects of PPARγ agonists on DRO cells were investigated. […] Firefly luciferase activity was normalized to renilla […] activity (RLU) and plotted as mean values ±S.D. (FIG. 3A).
Cells were transfected with siRNA for 72 hours followed by transfected with a PPRE3-tk-luc reporter and treatment with 10 nM RS5444 for 24 hours. […] Cotransfection with renilla luciferase allowed for normalization to relative light units (RLU).
Cells were plated in 6-well culture plates at initial concentrations of 2×10^5 cells/well. After overnight incubation, cells were transfected with PPRE/luc and CMV/renilla luciferase plasmid using Lipofectamine 2000 (Invitrogen), and after 24 hours, cells were treated with PPAR-γ agonists at indicated concentrations. After 24 hours of drug treatments, cells were washed with PBS and lysed in 1× reporter lysis buffer (Roche), and luciferase activity was measured with a Dual Luciferase assay kit (Promega, Madison Wis.) with a luminometer (Veritas/Turner Biosystems). The enzyme activity was normalized for efficiency of transfection on the basis of renilla activity levels and reported as relative light units (RLU).

[4] = DRO cells treated every 48 hours over six days, read-out: IC50, concentration at which 50% of cell proliferation was inhibited

SMILES: COC(=O)[C@H](CCSC)NC(=O)c1ccc(NC[C@@H](N)CS)cc1-c1ccccc1 [FTI-277]
- RhoB and p21 expression (Western blot) ([1]; 24 hours, 10 nM RS5444, 1 ng/mL FK-228, 10 μM FTI-277): upregulation of both RhoB and p21 expression
- inhibition of cell proliferation with RhoB vs scrambled siRNA ([2]; DRO cells transfected with RhoB or scrambled siRNA, treated every 48 hours for 6 days): dependent upon the upregulation of RhoB polypeptide to inhibit cell proliferation

- effect on agonist activation of PPARγ-induced luciferase activity ([3]; DRO cells pretreated 5 minutes with 10 μM GW9662 before 10 nM RS5444, 1 μM rosiglitazone or 10 μM troglitazone): abolished
SMILES: O=C(Nc1ccccc1)c1cc([N+](=O)[O-])ccc1Cl [GW9662]
- effect on RS5444 inducible luciferase activity ([3]; 10 μM GW9662 followed by 10 nM RS5444 one hour later): complete loss of RS5444 inducible luciferase activity
- effect of antagonist on RS5444-induced RhoB polypeptide expression ([1]; GW9662 plus 10 nM RS5444, 24 hours): abolished; also recorded: blocked the ability of RS5444 to elevate RhoB polypeptide expression
- effect on growth inhibition by TZDs ([2]; DRO cells pretreated one hour with 10 μM GW9662 before 10 nM RS5444, 1 μM rosiglitazone or 10 μM troglitazone, every 48 hours over six days): no longer growth inhibited

SMILES: CN(CCOc1ccc(CC2SC(=O)NC2=O)cc1)c1ccccn1 (stereo not drawn) [rosiglitazone]
- IC50 [2, 4]: ~0.075 µM

SMILES: Cc1c(C)c2c(c(C)c1O)CCC(C)(COc1ccc(CC3SC(=O)NC3=O)cc1)O2 (stereo not drawn) [troglitazone]
- IC50 ([2]; DRO cells treated every 48 hours for six days (FIG. 3B legend), read-out: IC50, DRO cell number): ~1.4 µM
- IC50 [2, 4]: ~1.41 µM
